Experiments:
CCR2 [1] = target: T1, CCR2 (Homo sapiens, UniProt P41597); experiment: Binding assay: inhibition of 125I-MCP-1 binding to THP-1 cells; design: CCR2 is also expressed in the human monocytic cell line THP-1; endogenous in cells; host or cells: THP-1 (human monocytic cell line), whole cells; conditions: THP-1 cells, 0.1 nM 125I-MCP-1, 1 hr at room temperature; read-out: Inhibition of 125I-MCP-1 binding to THP-1 cells, IC50
T1 sequence (P41597 1-360 isoform P41597-2): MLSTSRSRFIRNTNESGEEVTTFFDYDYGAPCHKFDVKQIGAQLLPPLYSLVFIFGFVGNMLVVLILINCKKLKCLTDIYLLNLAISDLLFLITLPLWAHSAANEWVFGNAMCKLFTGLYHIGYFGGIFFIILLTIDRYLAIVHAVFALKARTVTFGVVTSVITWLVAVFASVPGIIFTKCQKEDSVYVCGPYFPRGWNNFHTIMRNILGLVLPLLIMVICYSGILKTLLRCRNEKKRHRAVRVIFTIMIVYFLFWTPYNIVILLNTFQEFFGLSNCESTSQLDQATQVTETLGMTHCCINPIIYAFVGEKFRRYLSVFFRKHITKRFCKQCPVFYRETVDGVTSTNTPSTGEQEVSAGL
Experimental: Antagonism of the CCR2 receptor is determined by a binding assay using the human monocytic cell line THP-1. Cells are suspended in assay buffer (RPMI+1% BSA+25 mM HEPES) at 3×10^6 cells/ml and an aliquot (180 μl) added to a 0.5 ml siliconized Eppendorf tube. […] After incubation for 1 hr at room temperature, the cell suspension is centrifuged through oil and the cell pellets counted to quantitate cell-bound ligand. Nonspecific (NS) binding of radioligand is determined by the addition of 100 nM cold MCP-1. Control binding is determined by the addition of buffer without compound.

CCR2 [2] = target: T1, CCR2; experiment: Chemotaxis assay: MCP-1 induced migration of THP-1 cells; format: cell-based; design: endogenous in cells; host or cells: THP-1 cells; conditions: 3 nM MCP-1, 37° C. for 2 hr, read-out: Inhibition of cell chemotaxis, IC50
Experimental: Antagonism of CCR2 function is determined by a chemotaxis assay. MCP-1 is prepared in buffer (Hanks+0.1% human serum albumin) at 3 nM concentration and aliquoted into the bottom chambers of a 96-well chemotaxis plate (Neuroprobe). THP-1 cells are suspended in the same buffer at 1×10^7 cells/ml and compound added at various concentrations to the aliquots of cells. The cell and compound mixture is added to the top of the polycarbonate membrane (5 μm pore diameter) and the chemotaxis plate incubated at 37° C. for 2 hr. After the unmigrated cells are scraped off the top of the filter, the plate is gently centrifuged and the membrane removed. Cells which migrate to the bottom chamber are quantitated by counting with a hemacytometer. Spontaneous chemotaxis is determined by measuring cell migration in the absence of chemokine. Chemotaxis of a positive control is determined by measuring cell migration without compound. Inhibition of cell chemotaxis is determined as an IC50.

| IC50 (CCR2 [1]) [µM] | IC50 (CCR2 [2]) [µM] | melting point [°C] | Structure (SMILES) |
| --- | --- | --- | --- |
| ≤ 5 | ≤ 5 | – | CC(=O)C1=C(O)C(=O)N(c2ccc(Cl)c(C)c2)C1C1CCCCC1 (racemic) [Compound 53, 4-acetyl-1-(4-chloro-3-methylphenyl)-5-cyclohexyl-3-hydroxy-1,5-dihydro-2H-pyrrol-2-one] |
| – | – | 74 | CCOC(=O)OC1=C(C(C)=O)[C@@H](C2CCCCC2)N(c2ccc(Cl)cc2F)C1=O [Compound P1, (5R)-4-acetyl-1-(4-chloro-2-fluorophenyl)-5-cyclohexyl-2-oxo-2,5-dihydro-1H-pyrrol-3-yl ethyl carbonate] |
| ≤ 5 | ≤ 5 | – | CC(=O)C1=C(O)C(=O)N(c2ccc(Cl)cc2)[C@@H]1C12CC3CC(CC1C3)C2 [Compound 156, (R)-4-acetyl-1-(4-chlorophenyl)-3-hydroxy-5-tricyclo[3.3.1.0˜3,7˜]non-3-yl-1,5-dihydro-2H-pyrrol-2-one] |
| ≤ 5 | ≤ 5 | – | CC(=O)C1=C(O)C(=O)N(c2ccc(Cl)cc2)C1C1CCCCC1 (racemic) [Compound 24, 4-acetyl-1-(4-chlorophenyl)-5-cyclohexyl-3-hydroxy-1,5-dihydro-2H-pyrrol-2-one] |
| ≤ 5 | ≤ 5 | – | CC(=O)C1=C(O)C(=O)N(c2ccc(Cl)c(C)c2)C1C1CCCC1 (racemic) [Compound 69, 4-acetyl-1-(4-chloro-3-methylphenyl)-5-cyclopentyl-3-hydroxy-1,5-dihydro-2H-pyrrol-2-one] |
| ≤ 5 | ≤ 5 | – | CC(=O)C1=C(O)C(=O)N(c2ccc(C)cc2)C1C1CCCCC1 (racemic) [Compound 10, 4-acetyl-5-cyclohexyl-3-hydroxy-1-(4-methylphenyl)-1,5-dihydro-2H-pyrrol-2-one] |

— patent US6727275B2, “Pyrrolidinone derivatives” (UCB, S.A./N.V., priority 2001, dated 2004)
